# Reference: paper PMC4198181, “Gold(I) Complexes of 9-Deazahypoxanthine as Selective Antitumor and Anti-Inflammatory Agents” (PLoS ONE, 2014)
# Legend:
# [1] = system: 22Rv1 prostate carcinoma cells; assay: MTT in vitro cytotoxicity, 22Rv1; assay type: cell-based, human; conditions: 24 h treatment, read-out: IC50±S.E., 22Rv1
# Description: In vitro cytotoxic activity was determined by the MTT assay in human breast adenocarcinoma (MCF7; ECACC no. 86012803), human osteosarcoma (HOS; ECACC no. 87070202), lung carcinoma (A549; ECACC no. 86012804), malignant melanoma (G361; ECACC no. 88030401), cervix epitheloid carcinoma (HeLa; ECACC no. 93021013), ovarian carcinoma (A2780; ECACC no. 93112519), cisplatin-resistant ovarian carcinoma (A2780R; […] ECACC no 105092802) cancer cell lines, purchased from European Collection of Cell Cultures (ECACC). […] The primary culture of human hepatocytes (HEP220, batch number HEP220819) was obtained from Biopredic International (France). The culture medium was Williams and HAM's F-12 (1∶1) supplemented with penicillin, streptomycin, ascorbic acid, linoleic acid, holo-transferin, ethanolamine, glucagon, insulin, dexamethasone, pyruvate, glucose, glutamine, amphotericin. The medium was enriched for plating with 2% foetal calf serum (v/v). The medium was exchanged for a serum-free medium the day after and the culture was stabilized for additional 24 h. Thereafter, the cells were ready for treatments. […] The MTT assay was performed spectrophotometrically at 540 nm (TECAN, Schoeller Instruments LLC). The cytotoxicity data were expressed as the percentage of viability, where 100% represented the treatments with vehicle (0.1% DMF or 0.1% DMSO). The cytotoxicity data from the cancer cell lines were acquired from three independent experiments (conducted in triplicate) using cells from different passages. The IC50 values were calculated from viability curves. The results are presented as arithmetic means±standard error of the mean (S.E.).
# [2] = system: λ-carrageenan-induced hind paw edema; assay: Carrageenan-induced hind paw edema; assay type: in vivo, Wistar-SPF rats
# Description: Wistar-SPF (6–8 weeks male) rats were obtained from AnLab, Ltd. (Prague, Czech Republic). The animals were kept in plexiglass cages at the constant temperature of 22±1°C and relative humidity of 55±5% for at least 1 week before the experiment. They were given food and water ad libitum. All the experimental procedures were performed according to the National Institutes of Health (NIH) Guide for the Care and Use of Laboratory Animals. In addition, all the tests were conducted under the guidelines of the International Association for the Study of Pain [61]. After a one-week adaptation period, male Wistar-SPF rats (200–250 g) were randomly assigned to five groups (n = 7) of the animals in the study. The first, control group, received 25% DMSO (v/v in water, intraperitoneal; i.p.). The next three groups were pretreated with complexes 2, 4 and 5, and involved into the carrageenan-treatment. The fifth group was treated with a non-steroidal anti-inflammatory drug Indomethacin (5 mg/kg), which served as a positive control group (Indomethacin + carrageenan).
# The carrageenan-induced hind paw edema model was used for the determination of anti-inflammatory activity. Animals were i.p. pretreated with complexes 2, 4, and 5 (the dosages of the individual complexes were adjusted to contain the same amount of gold as in 10 mg/kg dose of Auranofin), Indomethacin (5 mg/kg), or 25% DMSO (v/v in water) 30 min prior to the injection of 1% λ-carrageenan solution (50 µL) into the plantar side of right hind paws of the rats. The paw volume was measured immediately after the carrageenan injection (this value was set-up as baseline value for the hind paw volume) and during the next 6 h after the administration of the edematogenic agent using a plethysmometer (model 7159, Ugo Basile, Varese, Italy). The degree of swelling was evaluated as a percentage of the change of the volume of the right hind paw after the carrageenan treatment from the baseline volume. A non-steroidal anti-inflammatory drug Indomethacin was used as a positive control and the obtained data were also compared with the previously reported profile of antiedematous activity for Auranofin [38]. After 6 h, the animals were sacrificed and the edematous feet were dissected, the tissue from the plantar parts was extracted, fixed and stained by a standard hematoxylin/eosin (HE) staining for cytological evaluation of polymorphonuclear cells infiltration.
# The statistically significant differences between individual groups during anti- inflammatory testing were evaluated using a one-way ANOVA test for statistical analysis, followed by Tukey's post-hoc test for multiple comparisons. GraphPad Prism 5.02 (GraphPad Software Inc., San Diego, CA, USA) was used to perform the analysis. The results are presented as arithmetic means±S.E. values.
# [3] = Interactions with L-cysteine and reduced glutathione by ESI+ MS; assay type: physicochemical; conditions: 20 µM complex, 290 µM cysteine, 6 µM glutathione, methanol/water 1:1
# Description: The interactions of selected gold(I) complexes 2 and 4, involving the isopropyloxy and benzyloxy substituent on C6 of 9-deazapurine, with the sulfur-containing biomolecules (i.e. L-cysteine and reduced glutathione) were studied by ESI+ mass spectrometry (ESI+ MS). The experiments were carried out using a Thermo Scientific LTQ Fleet Ion-Trap mass spectrometer, in positive ionization mode. The reactions of the representative complexes 2 and 4 were performed in methanol/water mixture (1∶1, v/v) containing the physiological concentrations of L-cysteine and glutathione (at the final concentrations of 290 µM, and 6 µM [63], respectively). The reference system consisted of the solutions of complexes (20 µM) in methanol/water mixture (1∶1, v/v). The flow injection analysis (FIA) method was utilized to introduce the reaction system (5 µL spikes) into the mass spectrometer and pure acetonitrile was used as a mobile phase. The ESI-source was set-up as follows: source voltage (5 kV), the vaporizer temperature (160°C), the capillary temperature (250°C), the sheath gas flow (30 L/min), and auxiliary gas flow rate (10 L/min). The system was calibrated as stated in the manufactured specifications and no further tuning was needed.
# [4] = i.p., dose equivalent in gold to 10 mg/kg Auranofin
Structure (SMILES),IC50 [1] [µM],"antiedematous effect compared with Auranofin ([2]; after 180 min, p<0.001, Auranofin profile from ref 38)","overall antiedematous / anti-inflammatory activity [2, 4]","antiedematous activity profile up to 180 min after carrageenan ([2]; i.p., dose equivalent in gold to 10 mg/kg Auranofin, 30 min before carrageenan)","antiedematous activity after 180 min ([2]; i.p., dose equivalent in gold to 10 mg/kg Auranofin, up to 6 h)",time within which interaction intermediates with cysteine/glutathione were detected (N-ligand exchange) [3] [h]
"CC(C)Oc1ncnc2cc[n]([Au])c12.c1ccc(P(c2ccccc2)c2ccccc2)cc1 [complex 2, [Au(L2)(PPh3)]]",4 ± 0.1,even better than that of gold-containing metallodrug Auranofin,significant anti-inflammatory effects,very similar pharmacological profiles of complexes 2 and 4 with the reference drug Indomethacin,elimination of hind paw swelling,≤ 1
[Au][n]1ccc2ncnc(OCCc3ccccc3)c21.c1ccc(P(c2ccccc2)c2ccccc2)cc1 [complex 5],3.7 ± 0.1,,inactive,,,
